Like-named read-outs stand apart in the source and are kept apart here.
Tests used:
P. falciparum = assay: In vitro toxicity against P. falciparum in culture (radiolabelled hypoxanthine incorporation / lactate dehydrogenase assay); format: cell-based, Plasmodium falciparum, FCQ27; conditions: for toxicity against P. falciparum, in words: statement in the transport and metabolism study
Protocol: P. falciparum, FCQ27, was maintained in culture using the techniques described by Trager & Jensen (W. Traqer and J. B. Jensen, Science, 193 673-675 (1976)). Cultures containing 2% hematocrit suspensions of parasitized human type O^+ erythrocytes in RPMI 1640 medium, supplemented with 25 mM HEPES-KOH, pH 7.2, 25 mM NaHCO3 and 10% human type O^+ serum (v/v) are maintained in modular incubator chambers at 37° C. in a gas mixture of 5% O2, 5% CO2 and 90% N2. The isolate of P. falciparum used in these experiments was FCQ27, routinely maintained in synchronized or asynchronous in vitro cultures at low hematocrit.
The potential toxicity of nucleoside analogues against P. falciparum in culture was tested in microtitre plates over the range of drug concentrations for 24 hours. The procedures for monitoring parasite viability is well established (A. M. Gero, H. V. Scott, W. J. O'Sullivan and R. I. Christopherson, Mol. Biochem. Parasitol. 34, 87-89 (1989)) and is based on radiolabelled hypoxanthine or isoleucine incorporation. The incorporation of [G-^3 H]hypoxanthine into the nucleic acids of P. falciparum was used to assess the viability of the parasite in vitro. Microculture plates were prepared with each well containing 225 μl of a 2% hematocrit culture of asynchronous parasited erythrocytes (1% parasitized cells). Each plate, containing varying concentrations of the drug to be studied (up to 200 μM final concentration for initial screen), was incubated for 24 h at 37° C. in a gas mixture of 5% O2, 5% CO2 and 90% N2, at which point [G-^3 H] hypoxanthine was added to each well and the incubation continued under identical conditions for a further 18-20 h. The control infected cells (i.e. without drug), routinely reached a parasitemia of 6-8% before harvesting. Expediency was aided by 96-well plate counter using lactate dehydrogenase for the drug susceptibility assay (L. K. Basco, F. Marguet, M. T. Makler and J. Lebbras, Exp. Parasitol. 80, 260-271 (1995); M. T. Makler and D. J. Hinrichs; Am. J. Trop. Med. Hyg. 48, 205-210 (1993)). This assay gave the identical results to the hypoxanthine technique. In addition, for each experiment, microscopic counting of Giemsa stained thin slides was used as a control.
The biological screen involved evaluation of the compounds against the protozoan P. falciparum in in vitro culture. The range of drug concentrations was used independently by two assays. One, radiolabelled hypoxanthine incorporation into the nucleic acid of P. falciparum, and the other, more expedient assay, a 96-well plate susceptibility assay using lactate dehydrogenase. Both assays gave identical results. In addition, microscopic counting of Giemsa stained thin slides was used as a control. Examples of experimental curves are attached as Appendix 2. The biological tests were done at several concentrations. The highest concentration was 200 μM, the compounds were considered active at concentrations less than 40 μM.

[1] = tested on: P. falciparum infected erythrocytes (trophozoites); format: in vitro ADME, human erythrocytes infected with Plasmodium falciparum
Protocol: The metabolism of the L-nucleoside conjugates was studied by HPLC analysis. The primary aim was to determine their ability to be catabolized by parasite purine salvage enzymes. Some effect on the purine metabolic pools was also observed.
For each HPLC determination 200 μL of packed cells of 80-90% trophozoite infected cells were used. These were isolated from in vitro cultures by synchronization of the parasites in in vitro cultures using sterile D-sorbitol (L. Lambros and J. P. Vanderberg, Parasitol. 65, 418-420 (1979)) followed by separation of the trophozoites from non infected erythrocytes by Percoll gradients as described previously (A. M. Gero, H. V. Scott, W. J. O'Sullivan and R. I. Christopherson, Mol. Biochem. Parasitol. 34, 87-89 (1989)). Trophozoites were incubated at 37° C. for 2 hours with each compound to be tested. Compounds were incubated with both whole infected cells as whole and lyzed uninfected normal erythrocytes to determine:
a) entry to the cell (whether they were transported);
Drug incubation was terminated by centrifugation through silicon oil using the method of Upston and Gero (J. M. Upston and A. M. Gero, Biochem. Biophys. Acta. 1236, 249-258 (1995)). This procedure separated intact trophozoites from extracellular non-transported drug solution.
The metabolism of nucleosides with potential chemotherapeutic activity was assessed by the analysis of cytoplasmic samples by reverse phase ion-pair high performance liquid chromatography (R. S. Toguzov, Y. V. Tikhonov, A. M. Pimenov, V. Prokudin, Journal of Chromatography, I. Biomedical Appl. 434, 447-453 (1988)). Nucleotides, nucleosides and bases were separated by this HPLC method.
It has been established that transport and uptake in parasite invaded cells is different from that of normal blood erythrocytes (A. M. Gero & A. M. Wood, In: Pyrine & Pyrimidine Methabolism in Man VII, Part A. (R. A. Harkness et al., Eds) Plenum Press, NY, 169-172 (1991)). Invasion by the malaria parasite comprises the cell membrane, allowing penetration of unnatural substances of various size and shape, whereas normal cells are very selective in uptake. It was shown that L-nucleosides and their derivatives easily penetrate invaded cells, while they have a very slow rate of uptake into normal cells, if they enter at all. In order to obtain preliminary data on transport, uptake and metabolism, the HPLC method was used to analyze the following 10 Lipitek compounds: L-101, L-103, L-109, L-111, L-117, L-133, L-138, GCl 1007, GCl 1027, GCl 1069.
These compounds were chosen for the identification of possible metabolites. In this experiment the compounds were incubated with both whole infected cells, and with whole and lysed uninfected cells, followed by the separation of unreacted compound and HPLC analysis.

[2] = Plasmodium falciparum, Table 5, β-D-FUdR and possible metabolic products, read-out: IC50
[3] = Plasmodium falciparum, 24 h, Table 1, 24 h drug exposure, up to 200 μM, read-out: IC50
[4] = Plasmodium falciparum, Table 2, FUdR linkage position 5', read-out: IC50
[5] = Table 1, 24 h drug exposure, up to 200 μM, read-out: IC50

O=c1[nH]c(=O)n([C@H]2C[C@H](O)[C@@H](CO)O2)cc1F [β-D-FUdR, β-D-5-fluoro-2'-deoxyuridine, reference compound]
IC50 (P. falciparum; [2]): 34 µM

O=c1[nH]cc(F)c(=O)[nH]1 [5FUracil, 5-fluorouracil, reference compound]
IC50 (P. falciparum; Plasmodium falciparum): 6 µM

Nc1ncnc2c1ncn2[C@@H]1O[C@@H](CO)[C@H](O)[C@H]1O [GCI 1018, α-L-arabinofuranosyl adenine]
IC50 (P. falciparum; Plasmodium falciparum, 24 h): > 200 µM

O=c1[nH]cnc2c1ncn2[C@@H]1C[C@@H](O)[C@H](CO)O1 [GCI 1037, β-L-dI]
IC50 (P. falciparum; [3]): > 200 µM

Nc1ncnc2c1ncn2[C@H]1C[C@@H](O)[C@H](CO)O1 [GCI 1069, α-L-dA]
entry to the infected cell [1]: entered the infected cells | IC50 (P. falciparum; [3]): > 200 µM | toxicity against P. falciparum, in words (P. falciparum): toxic against P. falciparum

O=c1[nH]c(=O)n([C@H]2C[C@@H](OP(O)(=S)OC[C@H]3O[C@@H](n4cc(F)c(=O)[nH]c4=O)C[C@@H]3O)[C@H](CO)O2)cc1F (stereo partly drawn) [L-103 thio, [α-L,β-D]-FUdR, S = P-O]
In vitro activity against P. falciparum, in words (P. falciparum): reduced dramatically | IC50 (P. falciparum; Plasmodium falciparum): > 200 µM | IC50 (P. falciparum; Plasmodium falciparum, 24 h): > 200 µM

O=c1[nH]c(=O)n([C@H]2C[C@@H](OP(=O)(O)OC[C@H]3O[C@@H](n4cc(F)c(=O)[nH]c4=O)C[C@@H]3O)[C@H](CO)O2)cc1F [L-103]
entry to the infected cell [1]: entered the infected cells | IC50 (P. falciparum; [3]): 20 µM | IC50 (P. falciparum; [4]): 20 µM | IC50 (P. falciparum; Plasmodium falciparum, Table 3, α-L configuration of the L-nucleoside, read-out: IC50): 20 µM | IC50 (P. falciparum; Plasmodium falciparum, Table 4, Phosphate "bridge" O=P--O, read-out: IC50): 20 µM | toxicity against P. falciparum, in words (P. falciparum): toxic against P. falciparum

β-D-FUdR 3'SATE [B01]
IC50 (P. falciparum; [5]): 100 µM

CNc1ncnc2c1ncn2[C@H]1O[C@@H](CO)[C@H](O)[C@@H]1O [GCI 1085, N^6 -methyl-β-L-A]
IC50 (P. falciparum; [3]): > 200 µM

6-thio-β-L-purine [GCI 1076]
IC50 (P. falciparum; [5]): > 200 µM

O=c1[nH]cnc2c1ncn2[C@H]1O[C@@H](CO)[C@H](O)[C@@H]1O [GCI 1033, β-L-I]
IC50 (P. falciparum; [3]): > 200 µM

Nc1nc2c(ncn2[C@H]2O[C@@H](CO)[C@H](O)[C@@H]2O)c(=O)[nH]1 [GCI 1030, β-L-G]
IC50 (P. falciparum; [3]): > 200 µM

O=c1[nH]c(=O)n([C@@H]2C[C@@H](O)[C@H](CO)O2)cc1F [β-L-FUdR, β-L-5-fluoro-2'-deoxyuridine]
IC50 (P. falciparum; Plasmodium falciparum, Erythrocyte, 24 h, Table 6, SATE derivatives of FUdR, read-out: ID50 (the source's name)): > 200 µM

β-D-FUdR 5'SATE [B02]
IC50 (P. falciparum; [5]): 60 µM

Nc1ccn([C@@H]2C[C@@H](OP(=O)(O)OC[C@H]3O[C@@H](n4cc(F)c(=O)[nH]c4=O)C[C@@H]3O)[C@H](CO)O2)c(=O)n1 [L-113]
IC50 (P. falciparum; [3]): 17 µM | IC50 (P. falciparum; [4]): 17 µM | IC50 (P. falciparum; Plasmodium falciparum, Table 3, β-L configuration of the L-nucleoside, read-out: IC50): 17 µM

O=[N+]([O-])c1ccc(CSc2ncnc3c2ncn3[C@@H]2O[C@H](CO)[C@@H](O)[C@H]2O)cc1 [NBMPR, nitrobenzylthionosine, reference compound]
IC50 (P. falciparum; [3]): 100 µM

O=c1[nH]c(=O)n([C@H]2C[C@H](O)[C@@H](COP(=O)(O)O)O2)cc1F [β-D-5'-FUdRmP, β-D-FUdR monophosphate, reference compound]
IC50 (P. falciparum; [2]): 50 µM
